According to ChEMBL document CHEMBL1142676, “Novel 2-alkylamino-1,4-benzoxazine derivatives as potent neuroprotective agents: structure-activity relationship studies” (J Med Chem, 2005):

Tests used:
[1] = tested on: HT-22; experiment: In vitro protective concentration of compound for HT-22 hippocampal cell cultures of mouse against 2 mM L-homocysteic acid in LDH assay; assay type: functional
[2] = tested on: HT-22; experiment: In vitro maximum tolerated concentration against HT-22 hippocampal cell cultures of mouse by LDH assay; assay type: functional
[3] = tested on: HT-22; experiment: In vitro toxic concentration against HT-22 hippocampal cell cultures of mouse by MTT reduction assay; assay type: functional; conditions: read-out: TC50 (the source's name)
[4] = tested on: HT-22; experiment: In vitro protective concentration of compound for HT-22 hippocampal cell cultures of mouse against 2 mM L-homocysteic acid in MTT reduction assay; assay type: functional
[5] = tested on: HT-22; experiment: In vitro toxic concentration against HT-22 hippocampal cell cultures of mouse by LDH assay; assay type: functional; conditions: read-out: TC50 (the source's name)
[6] = tested on: HT-22; experiment: In vitro safety index as ratio of MTC/PC50 was determined for HT-22 hippocampal cell cultures of mouse by LDH assay; assay type: functional
[7] = tested on: HT-22; experiment: In vitro safety index as ratio of MTC/PC50 was determined for HT-22 hippocampal cell cultures of mouse by MTT reduction assay; assay type: functional
[8] = tested on: HT-22; experiment: In vitro maximum tolerated concentration against HT-22 hippocampal cell cultures of mouse by MTT reduction assay; assay type: functional
[9] = Partition coefficient (logP); assay type: physicochemical; conditions: octanol/water

Row | logP [9] | SMILES | PC50 [1] [µM] | MTC [2] [µM] | CC50 [3] [µM] | PC50 [4] [µM] | CC50 [5] [µM] | Safety index [6] | Safety index [7] | MTC [8] [µM]
1 | – | O=C(c1ccccc1)c1ccc2c(c1O)NC(c1ccccc1)C(NCC(c1ccccc1)c1ccccc1)O2 (configuration not stated) | 5 | >250 | > 250 | 10 | > 250 | >50 | >25 | >250
2 | – | CC1(C)Nc2c(ccc(C(=O)c3ccccc3)c2O)OC1N1CCCCC1 (configuration not stated) | 4.1 | 100 | 72 | 3.2 | 120 | 24.4 | 3.1 | 10
3 | – | CN(CC1OCCO1)C1Oc2ccc(C(=O)c3ccccc3)c(O)c2NC12CCCCC2 (configuration not stated) | 2.2 | 25 | 25 | 2.4 | > 250 | 11.4 | 2 | 5
4 | – | O=C(c1ccccc1)c1ccc2c(c1O)NC1(CCCCC1)C(N1CCCCC1)O2 (configuration not stated) | 18.5 | >250 | 250 | 12.3 | > 250 | >13.5 | 8.1 | 100
5 | – | COC(CNC1Oc2ccc(C(=O)c3ccccc3)c(O)c2NC1c1ccccc1)OC (configuration not stated) | 2.5 | >250 | > 250 | 5 | > 250 | >100 | 20 | 100
6 | – | CC(C)CNC1Oc2ccc(C(=O)c3ccccc3)c(O)c2NC1(C)C (configuration not stated) | 0.54 | 100 | 45 | 0.41 | 160 | 185 | 24.4 | 10
7 | – | CC1(C)Nc2c(ccc(C(=O)c3ccccc3)c2O)OC1NC1CCCCC1 (configuration not stated) | 2.1 | 100 | 29 | 2.4 | 120 | 47.6 | 4.2 | 10
8 | – | O=C(c1ccccc1)c1ccc2c(c1O)NC1(CCCC1)C(NCC1CCCC1)O2 (configuration not stated) | 0.82 | 25 | 27 | 1.39 | 53 | 30.5 | 3.6 | 5
9 | – | O=C(c1ccccc1)c1ccc2c(c1O)NC1(CCCCC1)C(NCC1CCCCC1)O2 (configuration not stated) | 0.15 | 100 | 16.5 | 0.24 | > 250 | 667 | 20.8 | 5
10 | – | CC1(C)Nc2c(ccc(C(=O)c3ccccc3)c2O)OC1O (configuration not stated) | 1.1 | 100 | 48 | 0.97 | > 250 | 91 | 10.3 | 10
11 | – | CC1(C)Nc2c(ccc(C(=O)c3ccccc3)c2O)OC1N1CCOCC1 (configuration not stated) | 1.5 | 100 | 75 | 1.7 | 190 | 66.7 | 5.9 | 10
12 | – | O=C(c1ccccc1)c1ccc2c(c1O)NC1(CCCCC1)C(N1CCOCC1)O2 (configuration not stated) | 2.4 | 5 | 8.2 | 2.8 | 10.4 | 2.1 | 1.8 | 5
13 | 5.28 | CC(C)(C)C1COc2c(NCCc3ccccc3)ccc(C(=O)c3ccccc3)c2N1 (configuration not stated) | 4 | >250 | > 250 | 2.5 | > 250 | >62.5 | >100 | >250
14 | – | O=C(c1ccccc1)c1ccc2c(c1O)NC1(CCCCC1)C(O)O2 (configuration not stated) | 3 | 50 | 178 | 4 | > 250 | 16.6 | 6.2 | 25
15 | – | CC(C)CNC1Oc2ccc(C(=O)c3ccccc3)c(O)c2NC1c1ccccc1 (configuration not stated) | 10 | 10 | 108 | 10 | 79 | 1 | <1 | 5
16 | – | CC1(C)Nc2c(ccc(C(=O)c3ccccc3)c2O)OC1NCCc1ccccc1 (configuration not stated) | 4.1 | 100 | 66 | 2 | 199 | 24.4 | 5 | 10
17 | 5.11 | O=C(c1ccccc1)c1ccc(NCc2ccccc2)c2c1NC1(CCCC1)CO2 | 14.4 | >250 | > 250 | 15.8 | > 250 | >17.4 | >15.8 | >250
18 | 5.57 | CN(CC1OCCO1)C1Oc2ccc(C(=O)c3ccccc3)c(O)c2NC1c1ccccc1 (configuration not stated) | 1 | >250 | > 250 | 0.5 | > 250 | >250 | 200 | 100
